Measurements published in PMC3363478, “Pharmacokinetics of micafungin in patients with severe burn injuries” (Critical Care, 2012).
Numbered stars: 1 amine (or outer) side, 2 acyl side, 3 side chain; on linkers, the order of the positions; unused ones are H or OH. Bridge positions count the residues as written; N and C are the ends. Square brackets hold non-standard residues; d marks the D form. Peptide text beside a SMILES is read from it. * marks the point of attachment. hTyr(3S-OH,4S-OH,3'-OSO3H) = N[C@H](C(=O)O)[C@H](O)[C@@H](O)c1ccc(O)c(OS(=O)(=O)O)c1; Orn(4R-OH,5R-OH) = O=C([C@H](C[C@@H](O)[C@@H](O)N[*:3])N[*:1])[*:2]; Pro(3S-OH,4S-Me) = C[C@H]1CN[C@H](C(=O)O)[C@H]1O; X1 = CCCCCOc1ccc(-c2cc(-c3ccc(C(=O)*)cc3)no2)cc1; Gln(3R-OH) = NC(=O)C[C@@H](O)[C@H](N)C(=O)O; Hyp = O=C(O)[C@@H]1C[C@@H](O)CN1

Columns and labels:
[1] = MCFG concentrations in the burn eschar of severe burn patients; type: in vivo, human; conditions: patients with severe burn injuries; conclusion in words
Procedure: Eight severe burn patients within 14 days after injuries (M:F = 5:3, 19 to 85 years old, 35 to 85% total body surface area) were treated with MCFG (200 to 300 mg, 3.45 to 4.49 mg/kg) once daily by intravenous infusion over 1 hour. The MCFG concentrations in the plasma at the end of the initial administration of MCFG (P1), just before the second dosing (T1), at the end of the fourth dosing (P4), and just before the fifth dosing (T4) were determined, and were compared with the reported values in health volunteers. MCFG concentrations in the burn eschar at T1 and T4 were also measured.

[2] = cited from earlier work
Procedure: The plasma concentrations of MCFG per dose normalized with body weight (C/D) at P1, T1, P4, and T4 were 1.37 to 6.28, 0.51 to 1.38, 3.20 to 6.46, and 0.65 to 2.18 (μg/ml)/(mg/kg), respectively, indicating marked interindividual differences. […] The MCFG concentrations in the burn eschar of three patients at T1 and T4 were <0.1 to 3.98 and 1.10 to 14.81 μg/ml, respectively. Most of MCFG concentrations in the plasma and burn eschar were higher than the reported MIC90 of MCF ...

In the case of `CCCCCOc1ccc(-c2cc(-c3ccc(C(=O)N[C@H]4C[C@@H](O)[C@@H](O)NC(=O)[C@@H]5[C@@H](O)[C@@H](C)CN5C(=O)[C@H]([C@H](O)CC(N)=O)NC(=O)[C@H]([C@H](O)[C@@H](O)c5ccc(O)c(OS(=O)(=O)O)c5)NC(=O)[C@@H]5C[C@@H](O)CN5C(=O)[C@H]([C@@H](C)O)NC4=O)cc3)no2)cc1` [MCFG, Micafungin] (X1-[Orn(4R-OH,5R-OH)]T[Hyp][hTyr(3S-OH,4S-OH,3'-OSO3H)][Gln(3R-OH)][Pro(3S-OH,4S-Me)]; lactam 1-C), the “penetration into burn eschar” value [1] is given as “capable of penetrating burn eschar”, the “plasma C/D at P1, reported value in healthy volunteers” value ([2]; P1 = end of the initial administration) is given as 5.7 (μg/ml)/(mg/kg) and the “plasma C/D at T1, reported value in healthy volunteers” value ([2]; T1 = just before the second dosing) is given as 1.3 (μg/ml)/(mg/kg). The “plasma C/D at T4, reported value in healthy volunteers” value ([2]; T4 = just before the fifth dosing) was 2.1 (μg/ml)/(mg/kg).
